Data from PMC10382584, “Macrocyclization of linear molecules by deep learning to facilitate macrocyclic drug candidates discovery” (Nature Communications, 2023).
Values joined by “and” are separate entries in the source; they are usually repeats but may differ in a detail not shown here. Equal values may be shown once. Read-outs that look alike come from different tables or passages of the source.

Experiments:
JAK2 = molecular target: T1, JAK2 (Homo sapiens, UniProt O60674); test: JAK2 enzyme assay (Z'-LYTE kinase assay kit); assay type: biochemical
T1 construct: 0.05–0.42 ng JAK2, 2 μM peptide substrate (Tyr06)
Experimental: JAK kinase activity assays were performed using Z’-LYTETM kinase assay kit (Life Technologies, pv4122). […] The mixture was added into the 384-well microplate, shaken gently, and then incubated at room temperature for 1 h. Subsequently, 5 μL development solution was added to the well for incubating another 1 h. Finally, 5 μL stop reagent was added to stop the reaction. […] IC50 values were calculated using GraphPad Prism v8.0.3, and three parallel experiments were performed.

HEL cells = test: Cell proliferation assay (CCK-8), HEL cells; assay type: cell-based, human; conditions: for Inhibition (%): single wells, replicates 1 and 2
Experimental: (§1) The human erythroid leukemia (HEL 92.1.7) cells were purchased from the American Type Culture Collection (ATCC, TIB-180), and the human megakaryoblastic (SET2) cells were obtained from German Collection of Microorganisms and Cell Cultures (DSMZ, ACC 608). The anti-proliferative activities of compounds were evaluated using WST-8 cell counting kit-8 (Elabscience). HEL and SET-2 cells were seeded at 5000 cells/well in 70 μL RPMI-1640 medium (Hyclon) with 10% FBS (Gibco) to the 96-well plate and incubated overnight at 37 °C with 5% CO2. The compounds were serially diluted in RPMI-1640 medium, and cells were treated separately with 30 μL various concentrations of compounds for 72 h. The final DMSO concentration in the culture wells was 0.1%, which had no effect on the cell viability. Finally, 10 μL of CCK-8 solution was added into the wells. 4 h later, the absorbance values at 450 nm were recorded. IC50 values were determined using GraphPad Prism v8.3.0, and three parallel experiments were performed.

SET-2 cells = test: Cell proliferation assay (CCK-8), SET-2 cells; assay type: cell-based, human; conditions: for Inhibition (%): single wells, replicates 1 and 2
Experimental: as §1

In vivo PK study in mice = conditions: mice
Experimental: The mice were separately administered to a group of three mice per time point for intravenous (5 mg/kg) or oral administration (5 mg/kg). […] Then the samples were separated by centrifugation and analyzed by LC-MS/MS (XEVO TQ-S) to determine the plasma drug concentrations. The PK parameters were calculated using the noncompartment model with Phoenix WinNonLin v8.0. The animal experimental procedures were approved by the Medicine Research Ethics Committee of Hangzhou Leading Pharmatech Co., Ltd.
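For AUCinf in this document: mice dosed intravenously or orally, three animals per time point, plasma drug levels quantified by LC-MS/MS, PK parameters derived by noncompartmental analysis in Phoenix WinNonLin.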
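For Cmax in this document: mice dosed intravenously or orally, three animals per time point, plasma drug levels quantified by LC-MS/MS, PK parameters derived by noncompartmental analysis in Phoenix WinNonLin.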
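For T1/2 in this document: mice dosed intravenously or orally, three animals per time point, plasma drug levels quantified by LC-MS/MS, PK parameters derived by noncompartmental analysis in Phoenix WinNonLin.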
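For Tmax in this document: mice dosed intravenously or orally, three animals per time point, plasma drug levels quantified by LC-MS/MS, PK parameters derived by noncompartmental analysis in Phoenix WinNonLin.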

T1 sequence (O60674 whole entry): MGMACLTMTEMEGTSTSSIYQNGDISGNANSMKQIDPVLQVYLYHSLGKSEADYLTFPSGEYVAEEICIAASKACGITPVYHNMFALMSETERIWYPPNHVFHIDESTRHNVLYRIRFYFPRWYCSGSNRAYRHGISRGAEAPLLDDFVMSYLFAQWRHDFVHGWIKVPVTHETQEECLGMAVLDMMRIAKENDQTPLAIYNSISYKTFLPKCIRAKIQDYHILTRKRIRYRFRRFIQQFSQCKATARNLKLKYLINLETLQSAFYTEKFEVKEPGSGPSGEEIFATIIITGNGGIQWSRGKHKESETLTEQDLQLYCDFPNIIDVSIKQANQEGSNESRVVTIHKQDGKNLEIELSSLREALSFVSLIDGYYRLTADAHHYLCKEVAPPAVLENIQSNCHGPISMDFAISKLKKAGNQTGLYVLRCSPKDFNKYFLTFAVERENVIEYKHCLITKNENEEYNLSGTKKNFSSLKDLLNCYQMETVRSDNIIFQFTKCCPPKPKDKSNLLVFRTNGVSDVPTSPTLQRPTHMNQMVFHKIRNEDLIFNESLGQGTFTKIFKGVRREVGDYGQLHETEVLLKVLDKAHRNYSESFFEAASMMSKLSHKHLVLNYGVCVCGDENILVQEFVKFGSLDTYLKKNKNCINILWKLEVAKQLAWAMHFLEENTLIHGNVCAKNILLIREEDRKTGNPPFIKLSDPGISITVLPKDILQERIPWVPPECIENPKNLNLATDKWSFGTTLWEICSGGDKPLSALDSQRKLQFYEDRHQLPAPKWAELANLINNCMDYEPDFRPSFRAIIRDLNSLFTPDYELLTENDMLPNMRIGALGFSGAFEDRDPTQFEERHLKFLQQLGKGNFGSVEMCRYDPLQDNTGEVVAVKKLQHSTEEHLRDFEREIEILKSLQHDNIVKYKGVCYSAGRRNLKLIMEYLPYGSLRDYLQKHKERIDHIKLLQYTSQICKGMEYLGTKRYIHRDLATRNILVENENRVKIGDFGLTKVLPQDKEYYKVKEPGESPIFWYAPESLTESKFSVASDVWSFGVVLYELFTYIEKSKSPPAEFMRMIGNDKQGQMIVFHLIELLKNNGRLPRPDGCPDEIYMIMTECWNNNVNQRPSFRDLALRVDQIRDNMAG

SMILES: Cc1cnc2nc1Nc1cccc(c1)COCc1cc(ccc1OCCN1CCCC1)N2 [Compound 1]
- IC50 (JAK2; JAK2, 25 μM ATP, mean ± SD, n = 3, read-out: Enzyme Inhibitory Activity (IC50)): 0.07 µM
- IC50 (JAK2; JAK2 enzyme, mean of 3 replicates, read-out: IC50/μM mean, enzyme inhibitory activity): 0.07 µM
- IC50 (JAK2; JAK2 enzyme, mean ± SD of 3 replicates, read-out: IC50/μM mean ± SD, enzyme inhibitory activity): 0.07 ± 0.006 µM
- IC50 (JAK2; JAK2 enzyme, single-replicate fits (replicates 1-3), read-out: IC50/μM (individual replicates), enzyme inhibitory activity): 0.072 µM and 0.064 µM and 0.075 µM
- Inhibition (%) (HEL cells; HEL cell lines, 0.0977 μM): 2.2777% and 0.5143% and -1.6899% and 3.096% and 4.826% and 5.277%
- Inhibition (%) (HEL cells; HEL cell lines, 0.1953 μM): 5.8046% and 4.8494% and 8.1558% and 6.255% and 8.812% and 5.578%
- Inhibition (%) (HEL cells; HEL cell lines, 0.3906 μM): 18.9566% and 20.0588% and 8.5966% and 7.458% and 10.165% and 8.511%
- Inhibition (%) (HEL cells; HEL cell lines, 0.7813 μM): 26.0838% and 31.3005% and 30.4188% and 11.594% and 18.814% and 14.151%
- Inhibition (%) (HEL cells; HEL cell lines, 1.5625 μM): 34.0926% and 44.3057% and 45.4813% and 25.056% and 31.900% and 30.547%
- Inhibition (%) (HEL cells; HEL cell lines, 3.1250 μM, 3.125 µM): 46.4364% and 51.6532% and 53.8575% and 56.869% and 60.404% and 60.629%
- Inhibition (%) (HEL cells; HEL cell lines, 6.2500 μM, 6.25 µM): 64.2910% and 65.8339% and 68.7730% and 85.974% and 88.155% and 87.628%
- Inhibition (%) (HEL cells; HEL cell lines, 12.5000 μM, 12.5 µM): 80.4555% and 78.6187% and 81.4842% and 94.397% and 94.999% and 94.924%
- IC50 (HEL cells; HEL cell lines, mean of 2 replicates, read-out: IC50/μM mean, cellular antiproliferative activity): 2.41 µM
- IC50 (HEL cells; HEL cell lines, mean ± sd of 2 replicates, read-out: IC50/μM mean ± sd, cellular antiproliferative activity): 2.41 ± 0.2 µM
- IC50 (HEL cells; HEL cell lines, single-replicate fits, read-out: IC50/μM (individual replicates), cellular antiproliferative activity): 2.27 µM and 2.55 µM
- IC50 (HEL cells; HEL cells, 72 h, mean ± SD, read-out: Cellular Antiproliferative Activity (IC50) HEL): 2.41 ± 0.2 µM
- Inhibition (%) (SET-2 cells; SET-2 cell lines, 0.0977 μM): 5.3742% and 3.7022% and -1.2341% and 4.261% and 8.580% and 6.307%
- Inhibition (%) (SET-2 cells; SET-2 cell lines, 0.1953 μM): 7.5239% and 7.2850% and 0.8360% and 9.148% and 16.307% and 12.784%
- Inhibition (%) (SET-2 cells; SET-2 cell lines, 0.3906 μM): 10.3105% and 11.0271% and 3.0653% and 12.898% and 19.375% and 18.352%
- Inhibition (%) (SET-2 cells; SET-2 cell lines, 0.7813 μM): 17.3965% and 16.7596% and 8.4793% and 17.557% and 26.420% and 24.261%
- Inhibition (%) (SET-2 cells; SET-2 cell lines, 1.5625 μM): 26.9506% and 28.1449% and 22.3328% and 35.966% and 41.989% and 43.580%
- Inhibition (%) (SET-2 cells; SET-2 cell lines, 3.1250 μM, 3.125 µM): 60.6290% and 56.0111% and 56.4092% and 69.034% and 74.716% and 74.943%
- Inhibition (%) (SET-2 cells; SET-2 cell lines, 6.2500 μM, 6.25 µM): 97.5717% and 97.1736% and 97.3328% and 98.920% and 99.830% and 100.398%
- Inhibition (%) (SET-2 cells; SET-2 cell lines, 12.5000 μM, 12.5 µM): 96.8551% and 96.6959% and 97.3328% and 99.716% and 100.170% and 100.398%
- IC50 (SET-2 cells; SET-2 cell lines, mean of 2 replicates, read-out: IC50/μM mean, cellular antiproliferative activity): 1.64 µM
- IC50 (SET-2 cells; SET-2 cell lines, mean ± sd of 2 replicates, read-out: IC50/μM mean ± sd, cellular antiproliferative activity): 1.64 ± 0.03 µM
- IC50 (SET-2 cells; SET-2 cell lines, single-replicate fits, read-out: IC50/μM (individual replicates), cellular antiproliferative activity): 1.62 µM and 1.66 µM
- IC50 (SET-2 cells; SET-2 cells, 72 h, mean ± SD, read-out: Cellular Antiproliferative Activity (IC50) SET-2): 1.64 ± 0.03 µM
- AUCinf (In vivo PK study in mice; iv (5 mg/kg)): 752.47 ng·h/mL
- Cmax (In vivo PK study in mice; iv (5 mg/kg)): 76.57 ng/mL
- T1/2 (In vivo PK study in mice; iv (5 mg/kg)): 5.35 h
- Tmax (In vivo PK study in mice; iv (5 mg/kg)): 4.00 h
- AUCinf (In vivo PK study in mice; po (5 mg/kg)): 106.00 ng·h/mL
- Cmax (In vivo PK study in mice; po (5 mg/kg)): 10.35 ng/mL
- T1/2 (In vivo PK study in mice; po (5 mg/kg)): 4.47 h
- Tmax (In vivo PK study in mice; po (5 mg/kg)): 6.00 h
- F (bioavailability) (In vivo PK study in mice; po (5 mg/kg) vs iv (5 mg/kg)): 14.1%
